Values after ≈ are worked out from the molar mass of the structure shown. Ends that are not written are not given here.
Columns and labels:
[1] = tested on: human red blood cells (hRBCs); experiment: Hemolytic activity assay; format: cell-based; settings: 500 µg/mL peptide (highest concentration tested); 4% hRBC suspension in PBS pH 7.4, 37 °C, 1 h, absorbance 415 nm; relative to 0.1% Triton X-100
Procedure: The hemolytic activity of the peptides was assessed using human red blood cells (hRBCs), following the method described by Erviana et al., with some modifications. Briefly, a 4% hRBC suspension was prepared in 1X phosphate-buffered saline (PBS, pH 7.4). Subsequently, 100 µL of the hRBC suspension was mixed with 100 µL of peptide samples at various concentrations (500, 200, 100, 50, and 25 µg/mL) in microcentrifuge tubes. The mixture was incubated at 37 °C for 1 h, followed by centrifugation at 100× g for 5 min. The supernatant was collected and transferred to a 96-well plate for absorbance measurement at 415 nm. The hemolytic activity of each peptide was subsequently calculated using the following equation: Hemolysis (%)=S/P×100
In the above equation, S represents the absorbance at 415 nm of the sample or negative control, while P represents the absorbance at 415 nm of the positive control. The peptide solvent was used as the negative control, whereas 0.1% Triton X-100 served as the positive control.

[2] = tested on: Escherichia coli ATCC 25922; experiment: microbe, parasite or virus in culture; format: cell-based; settings: E. coli ATCC 25922, 37 °C, 16–18 h, ND = no detection at the highest tested concentration
Procedure: (§1) The following microorganisms were used to determine the minimum inhibitory concentration (MIC) and minimum bactericidal concentration (MBC) of the peptides: Gram-positive Staphylococcus aureus ATCC 25923, Gram-negative Escherichia coli ATCC 25922, Klebsiella pneumoniae ATCC 27736, and Pseudomonas aeruginosa ATCC 27853. The assays were conducted according to the protocol described by Erviana et al., with some modifications.
(§2) The antibacterial activity of the modified CeHS-1 analogs was evaluated using MIC and MBC assays. The MIC (minimum inhibitory concentration) is defined as the lowest concentration of antimicrobial peptides (AMPs) or other agents that inhibits visible bacterial growth. In contrast, the MBC (minimum bactericidal concentration) is defined as the lowest concentration of AMPs that kills 99.9% of the bacterial inoculum under the specified conditions. The determination of MIC values was performed using a 96-well plate assay. Initially, peptides were serially diluted in the wells. Then, 10 µL of bacterial inoculum, previously adjusted to a cell density of 2.2 × 10^6 CFU/mL, was added to each well. The plates were incubated at 37 °C for 16–18 h. The MIC was determined by measuring the optical density at 600 nm (OD600), with the lowest concentration of AMPs that inhibited visible bacterial growth defined as the MIC. […] The lowest concentration of AMPs at which no bacterial colonies were observed was defined as the MBC [47].

[3] = tested on: Pseudomonas aeruginosa ATCC 27853; experiment: microbe, parasite or virus in culture; format: cell-based; settings: P. aeruginosa ATCC 27853, 37 °C, 16–18 h, ND = no detection at the highest tested concentration
Procedure: as §1, §2

[4] = tested on: Staphylococcus aureus ATCC 25923; experiment: microbe, parasite or virus in culture; format: cell-based; settings: S. aureus ATCC 25923, 37 °C, 16–18 h, ND = no detection at the highest tested concentration
Procedure: as §1, §2

[5] = tested on: Klebsiella pneumoniae ATCC 27736; experiment: microbe, parasite or virus in culture; format: cell-based; settings: K. pneumoniae ATCC 27736, 37 °C, 16–18 h, ND = no detection at the highest tested concentration
Procedure: as §1, §2

[6] = tested on: S. aureus cytoplasmic membrane; format: cell-based, Staphylococcus aureus; settings: S. aureus 10^6 CFU/mL in PBS, 0.25, 0.5 and 1 MIC, 1 h, 37 °C; flow cytometry; at least triplicate
Procedure: A bacterial suspension of S. aureus was cultured in LB medium to the exponential phase (OD600 = 0.5). […] Following incubation, 42 µL of SYTOX™ Green Ready Flow™ Reagent (Invitrogen, Thermo Fisher Scientific, Carlsbad, CA, USA) was added to the peptide-treated cells and incubated for an additional 10 min at 25 °C. Fluorescence emission was measured using flow cytometry. The cell population was gated based on forward scatter and side scatter parameters. Cells with compromised membranes were identified by their fluorescence (excitation at 488 nm and detection at 530 nm with a 30 nm bandpass filter). The mean fluorescence intensity and the percentage of fluorescent cells were determined by analyzing 100,000 cells per sample. Each experiment was performed in at least triplicate. Flow cytometry measurements were conducted using a BD FACSCanto II system (BD Biosciences, Wokingham, UK).

[7] = 25 µL from wells without visible growth spread on nutrient agar
[8] = 96-well plate serial dilution, 10 µL inoculum of 2.2 × 10^6 CFU/mL, OD600

Compound: GWINIIKIQKKRWW-NH2 [compound 3]
- Hemolytic activity [1]: 7.74 ± 1.18%
- E. coli MBC [2, 7]: 256 µg/mL
- E. coli MIC [2, 8]: 128 µg/mL

Compound: VHKLAKGIFKRWW-NH2 [compound 12]
- Hemolytic activity [1]: 1.67 ± 0.17%
- P. aeruginosa MBC [3, 7]: 64 µg/mL
- P. aeruginosa MIC [3, 8]: 32 µg/mL
- S. aureus MBC [4, 7]: 32 µg/mL
- S. aureus MIC [4, 8]: 32 µg/mL
- K. pneumoniae MBC [5, 7]: 256 µg/mL
- K. pneumoniae MIC [5, 8]: 256 µg/mL
- E. coli MBC [2, 7]: 16 µg/mL
- E. coli MIC [2, 8]: 4 µg/mL

Compound: KIQKKIIKKIGRWW-NH2 [compound 6]
- Hemolytic activity [1]: 2.35 ± 0.20%
- P. aeruginosa MBC [3, 7]: 32 µg/mL
- P. aeruginosa MIC [3, 8]: 16 µg/mL
- S. aureus MBC [4, 7]: 64 µg/mL
- S. aureus MIC [4, 8]: 32 µg/mL
- K. pneumoniae MBC [5, 7]: 256 µg/mL
- K. pneumoniae MIC [5, 8]: 256 µg/mL
- E. coli MBC [2, 7]: 8 µg/mL
- E. coli MIC [2, 8]: 8 µg/mL

Compound: NC[C@H]1O[C@H](O[C@H]2[C@H](O)[C@@H](O[C@H]3O[C@H](CO)[C@@H](O)[C@H](N)[C@H]3O)[C@H](N)C[C@@H]2N)[C@H](O)[C@@H](O)[C@@H]1O [kanamycin]
- Cytoplasmic membrane permeabilization (SYTOX Green fluorescence intensity) [6]: low fluorescence intensity

Compound: CC1(C)S[C@@H]2[C@H](NC(=O)[C@H](N)c3ccccc3)C(=O)N2[C@H]1C(=O)O [Ampicillin, reference compound]
- MBC ([3]; Pseudomonas aeruginosa, ATCC27853, 25 µL from wells without visible growth spread on nutrient agar): 256 µg/mL (≈ 733 µM)
- MIC ([3]; Pseudomonas aeruginosa, ATCC27853, 96-well plate serial dilution, 10 µL inoculum of 2.2 × 10^6 CFU/mL, OD600): 128 µg/mL (≈ 366 µM)
- MBC ([4]; Staphylococcus aureus, ATCC25923, 25 µL from wells without visible growth spread on nutrient agar): 8 µg/mL (≈ 22.9 µM)
- MIC ([4]; Staphylococcus aureus, ATCC25923, 96-well plate serial dilution, 10 µL inoculum of 2.2 × 10^6 CFU/mL, OD600): 8 µg/mL (≈ 22.9 µM)
- MBC ([5]; Klebsiella pneumoniae, ATCC27736, 25 µL from wells without visible growth spread on nutrient agar): > 256 µg/mL
- MIC ([5]; Klebsiella pneumoniae, ATCC27736, 96-well plate serial dilution, 10 µL inoculum of 2.2 × 10^6 CFU/mL, OD600): > 256 µg/mL
- MBC ([2]; Escherichia coli, ATCC25922, 25 µL from wells without visible growth spread on nutrient agar): 32 µg/mL (≈ 91.6 µM)
- MIC ([2]; Escherichia coli, ATCC25922, 96-well plate serial dilution, 10 µL inoculum of 2.2 × 10^6 CFU/mL, OD600): 4 µg/mL (≈ 11.4 µM)

Compound: KKILGGMAKAVRWW-NH2 [compound 9]
- Hemolytic activity [1]: 2.39 ± 0.22%
- P. aeruginosa MBC [3, 7]: 128 µg/mL
- P. aeruginosa MIC [3, 8]: 64 µg/mL
- S. aureus MBC [4, 7]: 128 µg/mL
- S. aureus MIC [4, 8]: 64 µg/mL
- K. pneumoniae MBC [5, 7]: 128 µg/mL
- K. pneumoniae MIC [5, 8]: 128 µg/mL
- E. coli MBC [2, 7]: 32 µg/mL
- E. coli MIC [2, 8]: 8 µg/mL
